For test [1], the target named is ΔF508 cystic fibrosis transmembrane conductance regulator protein (CFTR) (Homo sapiens, UniProt P13569, DEL508-508). As to conditions: cells expressing ΔF508 CFTR; similar to cells expressing the wild-type CFTR protein; cited from earlier work.
The target in another test is T1, mutant (Q368X) myocilin (Homo sapiens, UniProt Q99972).
T1 construct: expressed in transfected cells
T1 sequence (Q99972 33-367 limits assumed): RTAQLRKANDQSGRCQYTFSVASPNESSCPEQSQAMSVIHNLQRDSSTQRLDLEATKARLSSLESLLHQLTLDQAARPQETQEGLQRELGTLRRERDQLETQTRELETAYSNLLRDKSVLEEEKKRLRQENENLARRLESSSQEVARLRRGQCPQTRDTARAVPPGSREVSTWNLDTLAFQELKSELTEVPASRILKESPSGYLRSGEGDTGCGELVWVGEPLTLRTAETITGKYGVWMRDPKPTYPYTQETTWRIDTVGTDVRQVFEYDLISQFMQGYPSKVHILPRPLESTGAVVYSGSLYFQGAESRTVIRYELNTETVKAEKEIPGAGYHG
The test is described as follows: secretion of mutant myocilin in cultured CHO cells (Western blot of media and lysates). The class given is cell-based. The note with it: CHO stable transfectants expressing Q368X myocilin; overnight incubation with chemical chaperone; glycerol 10%; E and I lanes; FIG. 1/FIG. 2. The source says: (§1) Wild-type myocilin is normally expressed and secreted from the human TM, whereas mutant disease-causing myocilin is retained intracellularly (Jacobson, Andrews et al. 2001). […] We tested several compounds for their ability to effect secretion of mutant myocilin in cultured CHO cells that were engineered for their ability to express, but not secrete, mutant (Y437H or Q368X) myocilin. Plasmids expressing wild-type or mutant myocilin were generated as described (Jacobson, Andrews et al. 2001).
(§2) CHO stable transfectants were grown in F12K media containing 10% FBS supplemented with penicillin-streptomycin-glutamine. Stable transfectants were generated by transfection with lipofectamine plus (Invitrogen) followed by limiting dilution plating and selection in G-418 (600 ug/ml). CHO cells were incubated with serum-free media 24 h post-transfection and media or cell lysates were collected after overnight incubation with the chemical chaperone. Equivalent cell lysate protein amounts (5 ug) were loaded for SDS-PAGE analysis. Cell media was not concentrated and was loaded at 16 ul per lane for SDS-PAGE/Western blot analysis.
(§3) Cells were rinsed with PBS and solubilized in a commercial mammalian extraction buffer (M-Per™; Pierce, Rockford, Ill.) supplemented with a protease inhibitor cocktail (Complete, EDTA-free; Boehringer Mannheim, Indianapolis, Ind.) followed by centrifugation at 12,000×g for 5 min. Protein concentration of the supernatant was determined with Coomasie Plus Protein Assay Reagent (Pierce). Cell extracts were stored at −20° C.
(§4) Cell media or extracts were analyzed using pre-cast NuPAGE polyacrylamide gels and the Novex gel electrophoresis system (Novex, San Diego, Calif.). Proteins were electroblotted to Hybond-P PVDF membranes (Amersham Pharmacia Biotech, Piscataway, N.J.), blocked with gelatin, and probed with affinity purified rabbit anti-MYOC antibody 129 (generated to myocilin peptide 156-171) (Jacobson, Andrews et al. 2001) and an anti-rabbit IgG secondary antibody (Amersham). Immunoreactivity was detected with the ECL Plus detection system (Amersham). Blots were exposed to BioMax MR film (Eastman Kodak, Rochester, N.Y.) and scanned with a Hewlett-Packard ScanJet ADF scanner (Hewlett Packard, Boise, Id.) for figure presentation.
For orientation: Immunoblotting shows a protein as a band on a membrane.

Another test addresses T2, mutant (Y437H) myocilin (Homo sapiens, UniProt Q99972, Y437H).
T2 construct: expressed in transfected cells
T2 sequence (Q99972 33-504 Y437H): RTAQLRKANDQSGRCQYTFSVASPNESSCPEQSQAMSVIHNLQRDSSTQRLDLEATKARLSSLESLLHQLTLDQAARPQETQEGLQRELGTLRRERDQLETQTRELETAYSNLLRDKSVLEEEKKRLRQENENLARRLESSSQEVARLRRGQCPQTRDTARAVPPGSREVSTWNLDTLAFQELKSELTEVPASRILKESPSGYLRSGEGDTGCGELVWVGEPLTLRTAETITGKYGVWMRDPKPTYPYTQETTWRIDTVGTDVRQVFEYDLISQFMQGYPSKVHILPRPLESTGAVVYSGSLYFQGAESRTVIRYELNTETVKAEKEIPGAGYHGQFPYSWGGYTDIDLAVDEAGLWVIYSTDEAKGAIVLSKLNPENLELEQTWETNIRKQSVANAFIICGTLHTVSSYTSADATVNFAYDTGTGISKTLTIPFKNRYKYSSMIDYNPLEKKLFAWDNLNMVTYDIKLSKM
The description is as above. As to conditions: CHO stable transfectants expressing Y437H myocilin; overnight incubation with chemical chaperone; glycerol 10%; E lane; FIG. 1/FIG. 2. Type of test: cell-based.
Text: as §1, §2, §3, §4

This is an account of results in patent publication US20120101160A1, “Use of chemical chaperones to treat glaucoma caused by misfolded or misprocessed proteins” (Alcon, Inc., priority 2004, published 2012).

Sequence of ΔF508 cystic fibrosis transmembrane conductance regulator protein (CFTR) (P13569 with tags, fused parts or gaps DEL508-508): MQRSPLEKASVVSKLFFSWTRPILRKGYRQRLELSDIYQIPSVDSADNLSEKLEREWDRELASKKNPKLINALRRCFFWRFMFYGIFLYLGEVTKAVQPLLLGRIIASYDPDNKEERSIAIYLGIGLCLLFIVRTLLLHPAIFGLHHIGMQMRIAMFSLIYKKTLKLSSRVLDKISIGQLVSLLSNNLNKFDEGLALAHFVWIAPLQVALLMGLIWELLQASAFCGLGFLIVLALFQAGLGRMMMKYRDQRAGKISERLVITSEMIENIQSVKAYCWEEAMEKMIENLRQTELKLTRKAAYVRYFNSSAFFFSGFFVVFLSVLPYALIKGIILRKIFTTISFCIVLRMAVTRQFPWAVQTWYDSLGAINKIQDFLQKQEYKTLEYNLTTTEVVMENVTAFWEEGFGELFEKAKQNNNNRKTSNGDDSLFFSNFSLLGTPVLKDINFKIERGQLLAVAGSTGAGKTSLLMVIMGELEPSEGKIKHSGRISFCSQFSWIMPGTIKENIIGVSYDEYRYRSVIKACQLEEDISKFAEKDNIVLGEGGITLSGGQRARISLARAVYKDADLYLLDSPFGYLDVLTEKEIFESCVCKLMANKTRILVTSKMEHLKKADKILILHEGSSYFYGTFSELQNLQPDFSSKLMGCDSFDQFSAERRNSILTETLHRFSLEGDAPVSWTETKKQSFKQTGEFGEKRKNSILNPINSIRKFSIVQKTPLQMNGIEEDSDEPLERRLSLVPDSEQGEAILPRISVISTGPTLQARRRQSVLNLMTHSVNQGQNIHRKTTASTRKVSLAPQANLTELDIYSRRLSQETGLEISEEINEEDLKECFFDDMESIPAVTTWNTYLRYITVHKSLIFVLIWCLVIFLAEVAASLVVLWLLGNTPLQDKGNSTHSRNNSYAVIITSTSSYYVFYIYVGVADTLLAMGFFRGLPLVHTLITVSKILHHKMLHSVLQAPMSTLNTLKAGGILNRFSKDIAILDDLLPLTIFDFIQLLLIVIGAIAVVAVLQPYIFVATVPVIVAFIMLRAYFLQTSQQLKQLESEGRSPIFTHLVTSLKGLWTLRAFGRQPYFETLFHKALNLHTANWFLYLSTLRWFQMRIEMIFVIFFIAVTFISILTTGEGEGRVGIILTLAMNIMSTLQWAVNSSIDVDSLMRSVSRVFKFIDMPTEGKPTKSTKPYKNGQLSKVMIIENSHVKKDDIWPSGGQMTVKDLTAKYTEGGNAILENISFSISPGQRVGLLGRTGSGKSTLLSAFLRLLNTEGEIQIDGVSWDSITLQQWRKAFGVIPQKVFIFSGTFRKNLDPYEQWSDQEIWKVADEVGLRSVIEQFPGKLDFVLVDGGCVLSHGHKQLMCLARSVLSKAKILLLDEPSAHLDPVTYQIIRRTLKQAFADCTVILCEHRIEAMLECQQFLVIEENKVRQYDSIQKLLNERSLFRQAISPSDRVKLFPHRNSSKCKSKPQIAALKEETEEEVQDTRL

Turning to `[2H]O[2H]` [deuterated water], in test [1], the “restoration of forskolin-dependent chloride transport” value (“restoration” for short) is “restored the ability of the mutant cells to exhibit forskolin-dependent chloride transport”.

As to `C[N+](C)(C)[O-]` [trimethylamine N-oxide], in test [1], the “restoration” value is listed as “restored the ability of the mutant cells to exhibit forskolin-dependent chloride transport”.

Consider Gentamycin, for which the “ability to effect secretion of mutant myocilin” value on mutant (Q368X) myocilin and at mutant (Y437H) myocilin was “did not effect secretion of mutant myocilin” throughout.

For the compound `OCC(O)CO` [Glycerol, glycerol], the “ability to effect secretion of mutant myocilin” value on mutant (Q368X) myocilin and at mutant (Y437H) myocilin was “able to effect full-length myocilin secretion” throughout. In test [1], the “restoration” value is recorded as “restored the ability of the mutant cells to exhibit forskolin-dependent chloride transport”.
